Like-named read-outs stand apart in the source and are kept apart here.
Assays:
[1] = tested on: isolated rat liver mitochondria; assay: Mitochondrial oxygen consumption (glutamate/malate or succinate driven, state 4 and state 3); assay type: biochemical; as to State 3 respiration driven by succinate at 10XCmax: key: 0 indicates that the drug had no effects (negative); as to State 3 respiration driven by succinate at 1XCmax: key: 0 indicates that the drug had no effects (negative)
Summary of the method: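 Oxygen uptake on glutamate/malate or on succinate defined state 4; ADP added 3 min later gave state 3. Mitochondria isolated from rat liver by differential centrifugation, adjusted to 1 mg/ml and pretreated 5 min with inhibitor (0.1% DMSO final). Values relative to DMSO control, set to 1.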

RCC III = RCC III activity in submitochondrial particles; assay type: biochemical, rat; conditions: 15 min, DMSO-treated = 100
Summary of the method: (§1)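 Abs 340 nm (I/V) or 600 nm (II), 1-min reads × 6 min; 550 nm (III, IV), 10-s reads × 2 min. RCC I = rotenone-free minus rotenone rate. DMSO control = 1.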

RCC IV = RCC IV activity in submitochondrial particles; assay type: biochemical, rat; parameters: key to RCC IV at 50XCmax / RCC IV at 100XCmax: activity relative to DMSO-treated controls (control set as 1 = 100%); conditions: for RCC activity IV: 15 min, DMSO-treated = 100
Summary of the method: as §1

[2] = tested on: isolated rat liver mitochondria; assay: Mitochondrial inner membrane potential (MMP), Rhodamine 123; assay type: biochemical; conditions: difference in signal between KI and DMSO treated samples at the end of experiments
Description: Fig. 3 KI effects on mitochondrial inner membrane potential (MMP). […] In a, c, data are means and standard derivations from three separate experiments. *p < 0.05 as compared to DMSO-treated samples at the end of experiments. In b, data are means of two independent experiments

[3] = tested on: isolated rat liver mitochondria; assay: Mitochondrial swelling (absorbance at 535 nm); assay type: biochemical; as to Swelling 5XCmax: key: 0 indicates that the drug had no effects (negative)
[4] = tested on: isolated rat liver mitochondria
[5] = cited from earlier work
[6] = cited from earlier work; remark: listed apart in the source
[7] = tested on: isolated rat liver mitochondria; assay: Mitochondrial ROS production (CM-H2DCFDA); conditions: DMSO treated samples set as 1
[8] = 1XCmax, DMSO treated samples set as 1
[9] = 2.5XCmax, DMSO treated samples set as 1
[10] = 5XCmax, DMSO treated samples set as 1
[11] = 10XCmax, DMSO treated samples set as 1
[12] = 20XCmax, DMSO treated samples set as 1
[13] = 30XCmax, DMSO treated samples set as 1
[14] = 50XCmax, DMSO treated samples set as 1
[15] = 100XCmax, DMSO treated samples set as 1

For `COc1cc2c(Nc3ccc(Br)cc3F)ncnc2cc1OCC1CCN(C)CC1` [Vandetanib], the “State 3 respiration driven by glutamate/malate at 1XCmax” value [1, 8] was 0, the “State 3 respiration driven by succinate at 1XCmax” value [1, 8] was 0 and the “State 4 respiration driven by glutamate/malate at 1XCmax” value [1, 8] was 0. The “State 4 respiration driven by succinate at 1XCmax” value [1, 8] was 0, the “State 3 respiration driven by glutamate/malate at 2.5XCmax” value [1, 9] was 0 and the “State 3 respiration driven by succinate at 2.5XCmax” value [1, 9] was 0. The “State 4 respiration driven by glutamate/malate at 2.5XCmax” value [1, 9] was 0, the “State 4 respiration driven by succinate at 2.5XCmax” value [1, 9] was 0 and the “State 3 respiration driven by glutamate/malate at 5XCmax” value [1, 10] was 0. The “State 3 respiration driven by succinate at 5XCmax” value [1, 10] was 0, the “State 4 respiration driven by glutamate/malate at 5XCmax” value [1, 10] was 0 and the “State 4 respiration driven by succinate at 5XCmax” value [1, 10] was 0. The “State 3 respiration driven by glutamate/malate at 10XCmax” value [1, 11] was 0, the “State 3 respiration driven by succinate at 10XCmax” value [1, 11] was 0 and the “State 4 respiration driven by glutamate/malate at 10XCmax” value [1, 11] was 0. The “State 4 respiration driven by succinate at 10XCmax” value [1, 11] was 0, the “State 3 respiration driven by glutamate/malate at 20XCmax” value [1, 12] was 0 and the “State 3 respiration driven by succinate at 20XCmax” value [1, 12] was 0. For the same molecule, the “State 4 respiration driven by glutamate/malate at 20XCmax” value [1, 12] was 0, the “State 4 respiration driven by succinate at 20XCmax” value [1, 12] was 0 and the “State 3 respiration driven by glutamate/malate at 30XCmax” value [1, 13] was 0. For the same molecule, the “State 3 respiration driven by succinate at 30XCmax” value [1, 13] was 0, the “State 4 respiration driven by glutamate/malate at 30XCmax” value [1, 13] was 0 and the “State 4 respiration driven by succinate at 30XCmax” value [1, 13] was 0. The “State 3 respiration driven by glutamate/malate at 50XCmax” value [1, 14] was 0, the “State 3 respiration driven by succinate at 50XCmax” value [1, 14] was 0 and the “State 4 respiration driven by glutamate/malate at 50XCmax” value [1, 14] was 0. The “State 4 respiration driven by succinate at 50XCmax” value [1, 14] was 0, the “State 3 respiration driven by glutamate/malate at 100XCmax” value [1, 15] was 0 and the “State 3 respiration driven by succinate at 100XCmax” value [1, 15] was 0. For the same molecule, the “State 4 respiration driven by glutamate/malate at 100XCmax” value [1, 15] was 0, the “State 4 respiration driven by succinate at 100XCmax” value [1, 15] was 0 and the “effect on mitochondrial oxygen consumption” value ([1]; up to 100-fold Cmax or highest testable concentration) was “no effects”. The “RCC activity III” value (RCC III; 50-fold Cmax) was 99.20 ± 5.61 % of control, the “RCC activity III” value (RCC III; 100-fold Cmax) was 91.23 ± 6.54 % of control and the “RCC activity IV” value (RCC IV; 50-fold Cmax) was 100.56 ± 2.67 % of control. The “RCC IV at 50XCmax” value (RCC IV; 50XCmax, relative to DMSO treated samples, in %) was 0, the “RCC activity IV” value (RCC IV; 100-fold Cmax) was 103.06 ± 12.96 % of control and the “MMP measured by Rhodamine 123 at 1XCmax” value ([2]; 1XCmax) was 0. The “MMP measured by Rhodamine 123 at 2.5XCmax” value ([2]; 2.5XCmax) was 0, the “MMP measured by Rhodamine 123 at 5XCmax” value ([2]; 5XCmax) was 0 and the “MMP measured by Rhodamine 123 at 10XCmax” value ([2]; 10XCmax) was 0. The “MMP measured by Rhodamine 123 at 20XCmax” value ([2]; 20XCmax) was 0, the “MMP measured by Rhodamine 123 at 30XCmax” value ([2]; 30XCmax) was 0 and the “MMP measured by Rhodamine 123 at 50XCmax” value ([2]; 50XCmax) was 0. For the same molecule, the “MMP measured by Rhodamine 123 at 100XCmax” value ([2]; 100XCmax) was 0, the “lowest concentration causing mitochondrial swelling” value [3] was 100 fold Cmax and the “Swelling 1XCmax” value ([3]; 1XCmax, difference in signal between KI and DMSO treated samples at the end of experiments) was 0. The “Swelling 2.5XCmax” value ([3]; 2.5XCmax, difference in signal between KI and DMSO treated samples at the end of experiments) was 0, the “Swelling 5XCmax” value ([3]; 5XCmax, difference in signal between KI and DMSO treated samples at the end of experiments) was 0 and the “Swelling 10XCmax” value ([3]; 10XCmax, difference in signal between KI and DMSO treated samples at the end of experiments) was 0. For the same molecule, the “Swelling 20XCmax” value ([3]; 20XCmax, difference in signal between KI and DMSO treated samples at the end of experiments) was 0, the “Swelling 30XCmax” value ([3]; 30XCmax, difference in signal between KI and DMSO treated samples at the end of experiments) was 0 and the “Swelling 50XCmax” value ([3]; 50XCmax, difference in signal between KI and DMSO treated samples at the end of experiments) was 0. The “Swelling 100XCmax” value ([3]; 100XCmax, difference in signal between KI and DMSO treated samples at the end of experiments) was 0.22±0.06, the “effect on mitochondrial swelling” value ([3]; up to 100-fold Cmax or highest testable concentration, 25 µM calcium chloride) was “significant mitochondrial swelling” and the “Cytochrome c release 1XCmax” value ([4]; 1XCmax, positive control alamethicin treated samples) was 0. The “Cytochrome c release 2.5XCmax” value ([4]; 2.5XCmax, positive control alamethicin treated samples) was 0, the “Cytochrome c release 5XCmax” value ([4]; 5XCmax, positive control alamethicin treated samples) was 0 and the “Cytochrome c release 10XCmax” value ([4]; 10XCmax, positive control alamethicin treated samples) was 0. For the same molecule, the “Cytochrome c release 20XCmax” value ([4]; 20XCmax, positive control alamethicin treated samples) was 0, the “Cytochrome c release 30XCmax” value ([4]; 30XCmax, positive control alamethicin treated samples) was 0 and the “Cytochrome c release 50XCmax” value ([4]; 50XCmax, positive control alamethicin treated samples) was 0. For the same molecule, the “Cytochrome c release 100XCmax” value ([4]; 100XCmax, positive control alamethicin treated samples) was 18.47±3.80 percentage of the positive control group, the “lowest concentration causing cytochrome c release” value ([4]; rat, 30 min, pH 7.4) was 100 fold Cmax and the Cmax ([5]; human therapeutic Cmax at FDA recommended dosages, ref product labeling and drug approval packages at the official FDA website) was 1.8 µM. For the same molecule, the Cmax ([5]; read-out: Cmax at µM, therapeutic maximal blood concentration, ref product labeling) was 1.8 µM, the “Cmax” value ([5]; therapeutic maximal blood concentration, ref product labeling) was 0.857 µg/mL and the “DILI potential (based on labeling)” value ([6]; 1 = DILI positive, 0 = negative, ref product labeling) was 0. For the same molecule, the “DILI potential (based on labeling)” value ([6]; ref FDA product labeling) was 0, the “ROS measured by CM-H2DCFDA at 1XCmax” value ([7]; 1XCmax) was 0 and the “ROS measured by CM-H2DCFDA at 2.5XCmax” value ([7]; 2.5XCmax) was 0. The “ROS measured by CM-H2DCFDA at 5XCmax” value ([7]; 5XCmax) was 0, the “ROS measured by CM-H2DCFDA at 10XCmax” value ([7]; 10XCmax) was 0 and the “ROS measured by CM-H2DCFDA at 20XCmax” value ([7]; 20XCmax) was 0. For the same molecule, the “ROS measured by CM-H2DCFDA at 30XCmax” value ([7]; 30XCmax) was 0, the “ROS measured by CM-H2DCFDA at 50XCmax” value ([7]; 50XCmax) was 0 and the “ROS measured by CM-H2DCFDA at 100XCmax” value ([7]; 100XCmax) was 0.

— paper PMC5515969, “Effects of 31 FDA approved small-molecule kinase inhibitors on isolated rat liver mitochondria” (Archives of Toxicology, 2016)
